Experimental data: PubChem BioAssay (NCI)
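Test compounds were applied to cells in 96-well plates for 48 hours at 5 doses. GI50: concentration for 50% inhibition of growth. The concentration for full growth arrest is given as TGI.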

How the values were obtained:
Test in all cases: growth of human tumour cells (NCI), 48 h
786-0 renal = system: 786-0 renal
A498 renal = system: A498 renal
A549 NSCLC = system: A549 NSCLC
ACHN renal = system: ACHN renal
BT-549 breast = system: BT-549 breast
CAKI-1 renal = system: CAKI-1 renal
CCRF-CEM leukemia = system: CCRF-CEM leukemia
COLO 205 colon = system: COLO 205 colon
DU-145 prostate = system: DU-145 prostate
EKVX NSCLC = system: EKVX NSCLC
HCC-2998 colon = system: HCC-2998 colon
HCT-116 colon = system: HCT-116 colon
HCT-15 colon = system: HCT-15 colon
HL-60(TB) leukemia = system: HL-60(TB) leukemia
HOP-62 NSCLC = system: HOP-62 NSCLC
HOP-92 NSCLC = system: HOP-92 NSCLC
HS 578T breast = system: HS 578T breast
HT29 colon = system: HT29 colon
IGROV1 ovarian = system: IGROV1 ovarian
K-562 leukemia = system: K-562 leukemia
KM12 colon = system: KM12 colon
LOX IMVI melanoma = system: LOX IMVI melanoma
M14 melanoma = system: M14 melanoma
MALME-3M melanoma = system: MALME-3M melanoma
MCF7 breast = system: MCF7 breast
MDA-MB-231 breast = system: MDA-MB-231 breast
MDA-MB-435 = system: MDA-MB-435
MDA-MB-468 breast = system: MDA-MB-468 breast
MOLT-4 leukemia = system: MOLT-4 leukemia
NCI-H226 lung = system: NCI-H226 lung
NCI-H23 lung = system: NCI-H23 lung
NCI-H460 lung = system: NCI-H460 lung
NCI-H522 lung = system: NCI-H522 lung
OVCAR-3 ovarian = system: OVCAR-3 ovarian
OVCAR-4 ovarian = system: OVCAR-4 ovarian
OVCAR-5 ovarian = system: OVCAR-5 ovarian
OVCAR-8 ovarian = system: OVCAR-8 ovarian
PC-3 prostate = system: PC-3 prostate
RPMI-8226 leukemia = system: RPMI-8226 leukemia
RXF 393 renal = system: RXF 393 renal
SF-268 CNS = system: SF-268 CNS
SF-295 CNS = system: SF-295 CNS
SF-539 CNS = system: SF-539 CNS
SK-MEL-2 melanoma = system: SK-MEL-2 melanoma
SK-MEL-28 melanoma = system: SK-MEL-28 melanoma
SK-MEL-5 melanoma = system: SK-MEL-5 melanoma
SK-OV-3 ovarian = system: SK-OV-3 ovarian
SN12C renal = system: SN12C renal
SNB-19 CNS = system: SNB-19 CNS
SNB-75 CNS = system: SNB-75 CNS
SR leukemia = system: SR leukemia
SW-620 colon = system: SW-620 colon
T-47D breast = system: T-47D breast
TK-10 renal = system: TK-10 renal
U251 CNS = system: U251 CNS
UACC-257 melanoma = system: UACC-257 melanoma
UACC-62 melanoma = system: UACC-62 melanoma
UO-31 renal = system: UO-31 renal

## C[C@H](Nc1nc(NCCc2ccccc2)nc2ccccc12)c1ccccc1
786-0 renal
  GI50: 1480 nM
  TGI: 2840 nM
A498 renal
  GI50: 1450 nM
  TGI: 3.37 µM
A549 NSCLC
  GI50: 1760 nM
  TGI: 6.18 µM
ACHN renal
  GI50: 1720 nM
  TGI: 3.81 µM
BT-549 breast
  GI50: 1330 nM
  TGI: 2640 nM
CAKI-1 renal
  GI50: 1360 nM
  TGI: 2730 nM
CCRF-CEM leukemia
  GI50: 1950 nM
  TGI: 7.66 µM
COLO 205 colon
  GI50: 1150 nM
  TGI: 2430 nM
DU-145 prostate
  GI50: 2480 nM
  TGI: 6.95 µM
EKVX NSCLC
  GI50: 1420 nM
  TGI: 3.21 µM
HCC-2998 colon
  GI50: 1400 nM
  TGI: 2700 nM
HCT-116 colon
  GI50: 1260 nM
  TGI: 2510 nM
HCT-15 colon
  GI50: 1420 nM
  TGI: 2900 nM
HL-60(TB) leukemia
  GI50: 1400 nM
  TGI: 3.98 µM
HOP-62 NSCLC
  GI50: 1520 nM
  TGI: 2930 nM
HOP-92 NSCLC
  GI50: 1080 nM
  TGI: 2470 nM
HS 578T breast
  GI50: 1450 nM
  TGI: 3.46 µM
HT29 colon
  GI50: 1260 nM
  TGI: 2960 nM
IGROV1 ovarian
  GI50: 1550 nM
  TGI: 3.26 µM
K-562 leukemia
  GI50: 1040 nM
  TGI: 3.62 µM
KM12 colon
  GI50: 1780 nM
  TGI: 3.73 µM
LOX IMVI melanoma
  GI50: 1590 nM
  TGI: 3.01 µM
M14 melanoma
  GI50: 1530 nM
  TGI: 2920 nM
MALME-3M melanoma
  GI50: 1400 nM
  TGI: 2780 nM
MCF7 breast
  GI50: 1470 nM
  TGI: 2990 nM
MDA-MB-231 breast
  GI50: 1680 nM
  TGI: 3.1 µM
MDA-MB-435
  GI50: 1370 nM
  TGI: 2730 nM
MDA-MB-468 breast
  GI50: 1130 nM
  TGI: 2450 nM
MOLT-4 leukemia
  GI50: 1500 nM
  TGI: 3.64 µM
NCI-H226 lung
  GI50: 1450 nM
  TGI: 3.04 µM
NCI-H23 lung
  GI50: 1440 nM
  TGI: 2900 nM
NCI-H460 lung
  GI50: 1350 nM
  TGI: 2830 nM
NCI-H522 lung
  GI50: 1500 nM
  TGI: 3.09 µM
OVCAR-3 ovarian
  GI50: 1340 nM
  TGI: 2980 nM
OVCAR-4 ovarian
  GI50: 1680 nM
  TGI: 5.9 µM
OVCAR-5 ovarian
  GI50: 1630 nM
  TGI: 3.42 µM
OVCAR-8 ovarian
  GI50: 1400 nM
  TGI: 2820 nM
PC-3 prostate
  GI50: 1370 nM
  TGI: 3.27 µM
RPMI-8226 leukemia
  GI50: 1400 nM
  TGI: 4.17 µM
RXF 393 renal
  GI50: 1070 nM
  TGI: 2310 nM
SF-268 CNS
  GI50: 2070 nM
  TGI: 6.31 µM
SF-295 CNS
  GI50: 1460 nM
  TGI: 2790 nM
SF-539 CNS
  GI50: 1700 nM
  TGI: 3.13 µM
SK-MEL-2 melanoma
  GI50: 1370 nM
  TGI: 2710 nM
SK-MEL-28 melanoma
  GI50: 1470 nM
  TGI: 2800 nM
SK-MEL-5 melanoma
  GI50: 1370 nM
  TGI: 2660 nM
SK-OV-3 ovarian
  GI50: 1560 nM
  TGI: 3 µM
SN12C renal
  GI50: 1760 nM
  TGI: 4.13 µM
SNB-19 CNS
  GI50: 2020 nM
  TGI: 5.56 µM
SNB-75 CNS
  GI50: 563 nM
  TGI: 3.49 µM
SR leukemia
  GI50: 1460 nM
  TGI: 3.51 µM
SW-620 colon
  GI50: 1400 nM
  TGI: 2880 nM
T-47D breast
  GI50: 1420 nM
  TGI: 3.66 µM
TK-10 renal
  GI50: 1930 nM
  TGI: 5.44 µM
U251 CNS
  GI50: 1440 nM
  TGI: 2830 nM
UACC-257 melanoma
  GI50: 1520 nM
  TGI: 3.04 µM
UACC-62 melanoma
  GI50: 1530 nM
  TGI: 2900 nM
UO-31 renal
  GI50: 1220 nM
  TGI: 2530 nM
